Reference: patent publication US8623914B2, “Medical composition” (TSUMURA & Co., priority 2011, dated 2014)

Experiments:
Parameters in all cases: species or system rat
[1] = test system: large intestinal peristaltic motility; assay: Test 1: action of each Daikenchuto component on peristaltic motility of the isolated intestine in an organ bath; details: for AUC (area under curve peak) / Mean-PPA (mean of peak pressure amplitude) / PF (peak frequency): value before addition = 100%
Experimental: Investigation of the Action of Each Crude Drug Component Contained in Daikenchuto on the Large Intestinal Peristaltic Motility:
Rats were used as experimental animals. According to the following way, the components contained in Daikenchuto, i.e., HAS, 6-shogaol (hereinafter abbreviated as “6-S”) and 6-gingerol (hereinafter abbreviated as “6-G”), were tested for the action on the peristaltic motility.
Male SD rats (provided by Japan Charles River Co.; SPF animals) were obtained at 6 weeks of age (body weight: 190-220 g) and the test was started at 7-9 weeks of age (body weight: 220-280 g at acquisition and using). Breeding was conducted at a temperature of 20-26° C. and a humidity of 35-75%, in aeration frequency of 15-25/hour in a cage under lighting for 12 hours (7 o'clock to 19 o'clock) per day, wherein 4 rats were placed in a cage. For feeding, solid feed MF (Oriental Yeast Co., Ltd.) was used, and the rats were able to freely drink ordinary tap water (Amimachi, Ibaraki Pref).
(§1) Normal rats which fasted overnight with free access to water were decapitated for mercy killing. Immediately, the intestine was removed and cut into 3-4 cm pieces, which were used as test samples. The removed test samples were immersed in an organ bath (perfusion rate: 3.5 mL/min) filled with a Krebs solution warmed at 32-33° C. and saturated with 95% O2/5% CO2 gas mixture. […] From the mouth side, physiological saline was injected at a certain rate (0.15 mL/min), and the frequency and amplitude of the pressure change in the lumen caused by the intestinal peristaltic motility were measured by means of a microchip pressure transducer (SPR-524, Millar Instruments Co.). After confirmation of the stabilized peristaltic motility in the test samples (intestinal tract), a test drug was added to the organ bath. Before and after the addition, the change of peristaltic motility for 10 minutes was determined by using recorded wave profile for the mean peak pressure amplitude (mean-PPA), the area under curve (AUC) of the peak and the peak frequency (PF) in the transducer. The resulting recorded wave profile was converted into numerical terms as the amplitude or frequency of the peristaltic motility by an analysis software. The value before the addition of the test drug was regarded as 100% for comparison and evaluation.

[2] = test system: intestinal peristaltic motility; assay: Test 2: peristaltic motility, combinations of HAS with 6-S or 6-G, same manner as Test 1; details: for AUC (area under curve peak) / Mean-PPA (mean of peak pressure amplitude) / PF (peak frequency): value before addition = 100%; for enhancement of the prokinetic effect on peristaltic motility by combining with HAS (in words): combined with HAS at a dose too low to exert the effect when used alone
Experimental: as §1
On the basis of the prokinetic effect of HAS, 6-S and 6-G on peristaltic motility in Test 1, the change of the prokinetic effect in a combination of these compounds was investigated in the same manner as in Test 1.

[3] = test system: intestinal peristaltic motility; assay: Test 4: peristaltic motility, HAS and bethanechol chloride alone and combined, same manner as Test 1; details: for AUC (area under curve peak) / Mean-PPA (mean of peak pressure amplitude) / PF (peak frequency): value before addition = 100%
Experimental: as §1, with “After confirmation of the stabilized peristaltic motility in the test samples (intestinal tract), a test drug was added to the organ bath. Before and after the addition, the change of peristaltic motility for 10 minutes was determined by using recorded wave profile for the mean peak pressure amplitude (mean-PPA), the area under curve (AUC) of the peak and the peak frequency (PF) in the transducer.” left out

[4] = test system: intestinal peristaltic motility; assay: Test 3: peristaltic motility, HAS and CAP alone and combined, same manner as Test 1; details: for AUC (area under curve peak) / Mean-PPA (mean of peak pressure amplitude) / PF (peak frequency): value before addition = 100%
Experimental: as §1
The respective prokinetic effect of HAS and CAP on peristaltic motility and change of the effect in a combination of these compounds were investigated in the same manner as in Test 1.

[5] = HAS 3 μM + CAP 0.03 μM versus CAP alone

SMILES	prokinetic effect on peristaltic motility (in words) ([1]; 1 μM)	AUC (area under curve peak) ([1]; 1 μM)	Mean-PPA (mean of peak pressure amplitude) ([1]; 1 μM)	PF (peak frequency) ([1]; 1 μM)	prokinetic effect on peristaltic motility (in words) ([1]; 10 μM)	AUC (area under curve peak) ([1]; 10 μM)	Mean-PPA (mean of peak pressure amplitude) ([1]; 10 μM)	PF (peak frequency) ([1]; 10 μM)	AUC (area under curve peak) ([2]; 3 μM)	Mean-PPA (mean of peak pressure amplitude) ([2]; 3 μM)	PF (peak frequency) ([2]; 3 μM)	enhancement of the prokinetic effect on peristaltic motility by combining with HAS (in words) [2]	other results
CCCCC[C@H](O)CC(=O)CCc1ccc(O)c(OC)c1 [6-G, 6-gingerol]	weak prokinetic effect	120.5%	141.1%	115.0%	significant prokinetic effect	188.2%	304.2%	76.9%	174.9%	235.8%	102.9%	potent enhancement	–
CCCCC/C=C/C(=O)CCc1ccc(O)c(OC)c1 [6-S, 6-shogaol]	promoted weakly	133.3%	202.6%	102.6%	prokinetic effect disappeared	73.4%	94.6%	120.8%	–	–	–	potent enhancement	AUC (area under curve peak) ([2]; 1 μM): 133.3%; Mean-PPA (mean of peak pressure amplitude) ([2]; 1 μM): 202.6%; PF (peak frequency) ([2]; 1 μM): 115.0%
CC(C[N+](C)(C)C)OC(N)=O (centres unmarked) [Beth, bethanechol chloride]	–	–	–	–	–	–	–	–	–	–	–	–	AUC (area under curve peak) ([3]; 1 μM): 87.6%; Mean-PPA (mean of peak pressure amplitude) ([3]; 1 μM): 98.9%; PF (peak frequency) ([3]; 1 μM): 153.8%
COc1cc(CNC(=O)CCCC/C=C/C(C)C)ccc1O [CAP, capsaicin]	–	–	–	–	–	–	–	–	–	–	–	–	AUC (area under curve peak) ([4]; 0.03 μM): 147.1%; Mean-PPA (mean of peak pressure amplitude) ([4]; 0.03 μM): 143.7%; PF (peak frequency) ([4]; 0.03 μM): 108.1%
C/C=C/C=C/C=C\CC/C=C/C(=O)NCC(C)(C)O [HAS, Hydroxy-α-sanshool]	–	–	–	–	very strong prokinetic effect	227.9%	478.2%	52.5%	99.0%	101.2%	93.0%	–	prokinetic effect on peristaltic motility (in words) ([1]; 3 μM): no influence; AUC (area under curve peak) ([1]; 3 μM): 121.5%; Mean-PPA (mean of peak pressure amplitude) ([1]; 3 μM): 119.5%; PF (peak frequency) ([1]; 3 μM): 98.3%; AUC (area under curve peak) ([4]; 3 μM): 110.2%; Mean-PPA (mean of peak pressure amplitude) ([4]; 3 μM): 105.7%; PF (peak frequency) ([4]; 3 μM): 98.7%; enhancement by HAS of the increase in AUC induced by CAP [4, 5]: ~4.6 times; enhancement by HAS of the increase in PPA induced by CAP [4, 5]: about 9.8 times; AUC (area under curve peak) ([3]; 3 μM): 130.6%; Mean-PPA (mean of peak pressure amplitude) ([3]; 3 μM): 105.2%; PF (peak frequency) ([3]; 3 μM): 84.6%; enhancement by HAS of the increase in PF induced by Beth ([3]; HAS 3 μM + Beth 1 μM versus Beth alone): twice or more
